Measurements: patent publication US4531001A, “2-β-D-ribofuranosylselenazole-4-carboxamide compounds” (priority 1983, dated 1985)
pIC50: −log10 of the molar value. Where “and” joins values, the source holds several entries; their conditions need not be identical. Equal entries are not always repeated.

Tests used:
L-1210 = test: Growth inhibition in suspension cell culture, L-1210; type: cell-based; conditions: Mus musculus, L1210, 72 hours, cell count 50 percent of untreated control, read-out: ID50 (the source's name)
Protocol: (§1) In further tests, growth-inhibitory effects of COMPOUND 1 and COMPOUND 2 were measured against 3 mouse tumor lines in suspension cell culture. Cell cultures were initiated at a density of 50,000 cells/ml in medium RPMI 1630 supplemented with 10 percent fetal calf serum. Composition of this culture medium and details of the culture procedure followed the published method (G. E. Moore, A. A. Sandberg and K. Ulrich, Suspension Cell Culture and in vivo and in-vitro chromosome constitution of mouse leukemia L1210, Journal of the National Cancer Institute 36, 405-415, 1966). Cultures were maintained at 37 degrees in stationary suspension culture under a 95 percent air+5 percent CO2 atmosphere. Test compounds were added to treated cultures at the time of initiation, and were present continually. After 72 hours, 40-fold dilutions of drug-treated and untreated control cultures were prepared in 0.9 percent NACl solution, and cells were counted on an electronic particle counter. The growth-inhibitory effects are expressed as ID50 values, namely, test compound inhibitory dosages or concentrations required to decrease cell count in treated cultures to 50 percent of the cell count of untreated control cultures.

P388 = test: Growth inhibition in suspension cell culture, P388; type: cell-based; conditions: Mus musculus, 72 hours, cell count 50 percent of untreated control, read-out: ID50 (the source's name)
Protocol: as §1

3 mouse tumor lines = test: Growth inhibition in suspension cell culture, representative tumor lines; type: cell-based
Protocol: as §1

B16 Melanoma = test: Growth inhibition in suspension cell culture, B16 Melanoma; type: cell-based; conditions: Mus musculus, 72 hours, cell count 50 percent of untreated control, read-out: ID50 (the source's name)
Protocol: as §1

Lewis lung carcinoma = test: Antitumor activity against Lewis lung carcinoma, Example 14 (Table IV); type: in vivo, B6D 2F 1 male mice; parameters: Treated Group Survival Time: unit not given here; conditions: for Treated Group Survival Time: mean, control 19.0
Protocol: As illustrative examples of the antitumor use of COMPOUNDS 1 and 2, Examples 12 through 14, below, are given. […] The tests utilized in these illustrative examples were conducted by the Developmental Therapeutics Program, Division of Cancer Treatment, National Cancer Institute. The tests were supervised by this agency utilizing their standard protocols and procedures. All tests conformed to these protocols and all tests were evaluated under the criteria defined by these protocols. The following representative examples illustrate confirmed activity of the illustrative compounds of the invention against screening tumor systems of the National Cancer Institute.
For purposes of the following examples, the abbreviation IP stands for intraperitoneal and IV stands for intravenous. The mean and median survival times are calculated in instruction 14 (revised 6/78) of the Screening Data Summary, Developmental Therapeutics Program, Division of Cancer Treatment, National Cancer Institute. The contents of this Screening Data Summary including appropriate revisions are herein incorporated by reference.
In the illustrated examples below, the vehicle used as carrier for the drug was injected (minus any drug therein) into the control animals at the same level of use of the vehicle in the drug treated animals in order to eliminate any vehicle effect of the tests.
In both the control group and the drug treated group in Example 12, the animals were inoculated on day zero with a homogenate of 10^6 seed cells of Lewis lung carcinoma. For Example 12, drug treatment was started on day one and COMPOUND 1 given once daily for nine days. Day five was utilized as the cut-off date for deaths attributable to toxicity of the drug. […] Efficacy of treatment was determined by comparing median survival time of the control animals and is expressed as percentage increase of treated animals/control animals (T/C).
COMPOUND 2, 2-(5-phosphono-β-D-ribofuranosyl)selenazole-4-carboxamide was screened for Lewis lung carcinoma activity in a manner similar to that described in Example 12. In this example, B6D 2F 1 male mice were challenged with Lewis lung carcinoma. The mean survival time of the test animals was compared to that of appropriate control animals. […] At 13 mg/kg the treated, surviving mice have a T/C of 315 percent and 4 out of 10 cures were achieved.

`NC(=O)c1c[se]c([C@@H]2O[C@H](COP(=O)(O)O)[C@@H](O)[C@H]2O)n1` [COMPOUND 2, 2-β-D-Ribofuranosylselenazole-4-Carboxamide 5'-phosphate] was tested, and the pIC50 (L-1210) was 7.24, the pIC50 (P388) was 7.18 and the “growth inhibition compared with COMPOUND 1, in words” value (3 mouse tumor lines; cell culture) was “appears to be superior to COMPOUND 1”. For the same compound, the “growth inhibition in words” value (3 mouse tumor lines; representative tumor lines in cell culture) was “inhibit growth in cell culture for representative tumor lines at extremely low dosage”, the pIC50 (B16 Melanoma) was 5.12 and the Cures (Lewis lung carcinoma; 3 mg/kg) was 0/10. The “Percent Treated Animals/Control Animals (T/C)” value (Lewis lung carcinoma; 3 mg/kg) was 109%, the “Treated Group Survival Time” value (Lewis lung carcinoma; 3 mg/kg) was 20.8 and the Cures (Lewis lung carcinoma; 6 mg/kg) was 0/10. The “Percent Treated Animals/Control Animals (T/C)” value (Lewis lung carcinoma; 6 mg/kg) was 115%, the “Treated Group Survival Time” value (Lewis lung carcinoma; 6 mg/kg) was 22.0 and the Cures (Lewis lung carcinoma; 9 mg/kg) was 1/10. The “Treated Group Survival Time” value (Lewis lung carcinoma; 9 mg/kg) was 12.5, the Cures (Lewis lung carcinoma; 13 mg/kg) was 4 out of 10 and 4/10 and the “Percent Treated Animals/Control Animals (T/C)” value (Lewis lung carcinoma; 13 mg/kg) was 315%. The “Treated Group Survival Time” value (Lewis lung carcinoma; 13 mg/kg) was 60.0, the Cures (Lewis lung carcinoma; 20 mg/kg) was 2/10 and the “Treated Group Survival Time” value (Lewis lung carcinoma; 20 mg/kg) was 12.0. For the same compound, the Cures (Lewis lung carcinoma; 33 mg/kg) was 3/10, the “Treated Group Survival Time” value (Lewis lung carcinoma; 33 mg/kg) was 12.5 and the Cures (Lewis lung carcinoma; 50 mg/kg) was 3/10. The “Treated Group Survival Time” value (Lewis lung carcinoma; 50 mg/kg) was 12.5, the Cures (Lewis lung carcinoma; 75 mg/kg) was 1/10 and the “Treated Group Survival Time” value (Lewis lung carcinoma; 75 mg/kg) was 15.5. For the same compound, the “antitumor activity in words” value (Lewis lung carcinoma; mean survival time versus control) was “effective antitumor agent”.
